Experimental data taken from patent US8361968B2 (Takeda Pharmaceutical Company Limited, priority 2002, dated 2013).
Numbered stars: 1 amine (or outer) side, 2 acyl side, 3 side chain; on linkers, the order of the positions; unused ones are H or OH. Square brackets hold non-standard residues; d marks the D form. Ends that are not written are not given here. Peptide text beside a SMILES is read from it. * marks the point of attachment. X4 = CC(C)C[C@H](NCCN*)C(=O)N[C@@H](CCCNC(=N)N)C(=O)N[C@@H](Cc1ccccc1)C(N)=O; X1 = O=C([C@H](Cc1ccc2ccccc2n1)N[*:1])[*:2]; Phe(3-Cl) = N[C@@H](Cc1cccc(Cl)c1)C(=O)O; Phe(4-Cl) = N[C@@H](Cc1ccc(Cl)cc1)C(=O)O; Phe(2-Cl) = N[C@@H](Cc1ccccc1Cl)C(=O)O; Phe(4-F) = N[C@@H](Cc1ccc(F)cc1)C(=O)O; 2Nal = N[C@@H](Cc1ccc2ccccc2c1)C(=O)O; Arg(Me) = CNC(=N)NCCC[C@H](N)C(=O)O; 4Pal = N[C@@H](Cc1ccncc1)C(=O)O; d3Pal = N[C@H](Cc1cccnc1)C(=O)O; Cha = N[C@@H](CC1CCCCC1)C(=O)O; azaGly = NNC(=O)O

Target: hOT7T175 (Homo sapiens, UniProt Q969F8, L364H)
Experiment: Intracellular Ca ion level-increasing activity using FLIPR in hOT7T175/CHO
Format: cell-based
Set-up: expressed in transfected cells; host or cells: CHO/dhfr- cells, obtained from ATCC
Conditions: relative, Metastin (1-54) = 1

hOT7T175, sequence (Q969F8 whole entry L364H): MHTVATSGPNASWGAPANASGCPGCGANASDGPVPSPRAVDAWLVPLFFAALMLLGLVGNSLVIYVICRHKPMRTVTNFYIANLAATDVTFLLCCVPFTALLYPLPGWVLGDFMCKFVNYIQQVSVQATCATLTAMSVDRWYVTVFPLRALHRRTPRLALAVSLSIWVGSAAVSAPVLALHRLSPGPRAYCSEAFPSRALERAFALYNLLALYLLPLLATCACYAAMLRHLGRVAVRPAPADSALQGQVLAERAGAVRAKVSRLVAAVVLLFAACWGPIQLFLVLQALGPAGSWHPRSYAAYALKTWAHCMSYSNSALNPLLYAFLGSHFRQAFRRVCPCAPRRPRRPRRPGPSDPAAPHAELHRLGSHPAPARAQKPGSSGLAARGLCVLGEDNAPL

Specific Activity (intracellular Ca ion level-increasing activity) | Molecule
001 | CCCNC(=N)NCCC[C@H](NC(=O)[C@H](CC(C)C)NC(=O)CNC(=O)[C@H](Cc1ccccc1)NC(=O)[C@H](CO)NC(=O)[C@H](CC(N)=O)NC(=O)[C@H](Cc1c[nH]c2ccccc12)NC(=O)[C@H](CC(N)=O)NC(=O)[C@H](N)Cc1ccc(O)cc1)C(=O)N[C@@H](Cc1ccccc1)C(N)=O [Compound No. 193]
5 | CNC(=N)NCCC[C@H](NC(=O)[C@H](CC(C)C)NC(=O)NNC(=O)[C@H](Cc1ccccc1)NC(=O)[C@H](CO)NC(=O)[C@H](CC(N)=O)NC(=O)[C@H](Cc1c[nH]c2ccccc12)NC(=O)[C@H](CC(N)=O)NC(=O)[C@H](N)Cc1ccc(O)cc1)C(=O)N[C@@H](Cc1ccc(F)cc1)C(N)=O [Compound No. 318, D-Tyr-Asn-Trp-Asn-Ser-Phe-AzaGly-Leu-Arg(Me)-Phe(4F)-NH2]
1 | CNC(=N)NCCC[C@H](NC(=O)[C@H](CC(C)C)NC(=O)NNC(=O)[C@H](Cc1ccccc1)NC(=O)[C@H](CO)NC(=O)[C@H](CC(N)=O)NC(=O)[C@H](Cc1ccccc1)NC(=O)[C@H](N)Cc1ccc(O)cc1)C(=O)N[C@@H](Cc1ccccc1)C(N)=O [Compound No. 254, D-Tyr-Phe-Asn-Ser-Phe-AzaGly-Leu-Arg(Me)-Phe-NH2] (H-[dY]FNSF[azaGly]L[Arg(Me)]F-NH2)
1 | CNC(=N)NCCC[C@H](NC(=O)[C@H](CC(C)C)NC(=O)NNC(=O)[C@H](Cc1ccccc1)NC(=O)[C@H](CO)NC(=O)[C@H](CC(N)=O)NC(=O)[C@H](Cc1ccncc1)NC(=O)[C@@H](CC(N)=O)NC(=O)[C@H](N)Cc1ccc(O)cc1)C(=O)N[C@@H](Cc1ccc(F)cc1)C(N)=O [Compound No. 317, D-Tyr-D-Asn-Pya(4)-Asn-Ser-Phe-AzaGly-Leu-Arg(Me)-Phe(4F)-NH2] (H-[dY][dN][4Pal]NSF[azaGly]L[Arg(Me)][Phe(4-F)]-NH2)
1 | CNC(=N)NCCC[C@H](NC(=O)[C@H](CC(C)C)NC(=O)NNC(=O)[C@H](Cc1ccccc1)NC(=O)[C@H](CO)NC(=O)[C@H](CC(N)=O)NC(=O)[C@H](Cc1ccc(Cl)cc1)NC(=O)[C@H](CC(N)=O)NC(=O)[C@H](N)Cc1ccc(O)cc1)C(=O)N[C@@H](Cc1ccccc1)C(N)=O [Compound No. 249, D-Tyr-Asn-Phe(4Cl)-Asn-Ser-Phe-AzaGly-Leu-Arg(Me)-Phe-NH2] (H-[dY]N[Phe(4-Cl)]NSF[azaGly]L[Arg(Me)]F-NH2)
1 | CC(C)C[C@H](NC(=O)CNC(=O)[C@H](Cc1ccccc1)NC(=O)[C@H](CO)NC(=O)[C@H](CC(N)=O)NC(=O)[C@H](Cc1c[nH]c2ccccc12)NC(=O)[C@H](CC(N)=O)NC(=O)[C@@H](N)Cc1ccc(O)cc1)C(=O)N[C@@H](CCCNC(=N)N)C(=O)N[C@@H](Cc1ccc2ccccc2n1)C(N)=O [Compound No. 201] (H-YNWNSFGLR[X1]-NH2)
1 | CC(=O)NC(=N)NCCC[C@H](NC(=O)[C@H](CC(C)C)NC(=O)CNC(=O)[C@H](Cc1ccccc1)NC(=O)[C@H](CO)NC(=O)[C@H](CC(N)=O)NC(=O)[C@H](Cc1c[nH]c2ccccc12)NC(=O)[C@H](CC(N)=O)NC(=O)[C@H](N)Cc1ccc(O)cc1)C(=O)N[C@@H](Cc1ccccc1)C(N)=O [Compound No. 194]
5 | CNC(=N)NCCC[C@H](NC(=O)[C@H](CC(C)C)NC(=O)[C@H](C)NC(=O)[C@H](Cc1ccccc1)NC(=O)[C@H](CO)NC(=O)[C@H](CC(N)=O)NC(=O)[C@H](Cc1c[nH]c2ccccc12)NC(=O)[C@H](CC(N)=O)NC(=O)[C@H](N)Cc1ccc(O)cc1)C(=O)N[C@@H](Cc1ccccc1)C(N)=O [Compound No. 204] (H-[dY]NWNSFAL[Arg(Me)]F-NH2)
1 | Tyr-Asn-Trp-Asn-Ser-Phe-Gly-Ala-Arg-Phe-NH2 (YNWNSFGARF-NH2) [Compound No. 45]
5 | CC(C)C[C@H](NC(=O)CNC(=O)[C@H](Cc1ccc2ccccc2c1)NC(=O)[C@H](CO)NC(=O)[C@H](CC(N)=O)NC(=O)[C@H](Cc1c[nH]c2ccccc12)NC(=O)[C@H](CC(N)=O)NC(=O)[C@@H](N)Cc1ccc(O)cc1)C(=O)N[C@@H](CCCNC(=N)N)C(=O)N[C@@H](Cc1ccccc1)C(N)=O [Compound No. 152, Tyr-Asn-Trp-Asn-Ser-Nal(2)-Gly-Leu-Arg-Phe-NH2] (H-YNWNS[2Nal]GLRF-NH2)
5 | CC(C)C[C@H](NC(=O)CNC(=O)[C@H](Cc1ccc(F)cc1)NC(=O)[C@H](CO)NC(=O)[C@H](CC(N)=O)NC(=O)[C@H](Cc1c[nH]c2ccccc12)NC(=O)[C@H](CC(N)=O)NC(=O)[C@@H](N)Cc1ccc(O)cc1)C(=O)N[C@@H](CCCNC(=N)N)C(=O)N[C@@H](Cc1ccccc1)C(N)=O [Compound No. 154, Tyr-Asn-Trp-Asn-Ser-Phe(4F)-Gly-Leu-Arg-Phe-NH2]
1 | CNC(=N)NCCC[C@H](NC(=O)[C@H](CC(C)C)NC(=O)CNC(=O)[C@H](Cc1ccccc1)NC(=O)[C@H](CO)NC(=O)[C@H](CC(N)=O)NC(=O)[C@@H](NC(=O)[C@H](CC(N)=O)NC(=O)[C@H](N)Cc1ccc(O)cc1)C(C)C)C(=O)N[C@@H](Cc1ccccc1)C(N)=O [Compound No. 229] (H-[dY]NVNSFGL[Arg(Me)]F-NH2)
1 | CC(C)C[C@H](NCCNC(=O)[C@H](Cc1ccccc1)NC(=O)[C@H](CO)NC(=O)[C@H](CC(N)=O)NC(=O)[C@H](Cc1c[nH]c2ccccc12)NC(=O)[C@H](CC(N)=O)NC(=O)[C@@H](N)Cc1ccc(O)cc1)C(=O)N[C@@H](CCCNC(=N)N)C(=O)N[C@@H](Cc1ccccc1)C(N)=O [Compound No. 261, Tyr-Asn-Trp-Asn-Ser-Phe-GlyΨ(CH2NH)Leu-Arg-Phe-NH2] (H-YNWNSF-X4; N-terminus assumed)
10 | CC(C)C[C@H](NC(=O)CNC(=O)[C@H](Cc1ccccc1)NC(=O)[C@H](CO)NC(=O)[C@H](CC(N)=O)NC(=O)[C@H](Cc1c[nH]c2ccccc12)NC(=O)[C@H](CC(N)=O)NC(=O)[C@@H](N)Cc1ccc(O)cc1)C(=O)N[C@@H](CCCNC(=N)N)C(=O)N[C@@H](Cc1ccc([N+](=O)[O-])cc1)C(N)=O [Compound No. 132]
1 | CNC(=N)NCCC[C@H](NC(=O)[C@H](CC(C)C)NC(=O)NNC(=O)[C@H](Cc1ccccc1)NC(=O)[C@H](CO)NC(=O)[C@H](CC(N)=O)NC(=O)[C@H](Cc1ccccc1Cl)NC(=O)[C@H](CC(N)=O)NC(=O)[C@H](N)Cc1ccc(O)cc1)C(=O)N[C@@H](Cc1ccccc1)C(N)=O [Compound No. 247, D-Tyr-Asn-Phe(2Cl)-Asn-Ser-Phe-AzaGly-Leu-Arg(Me)-Phe-NH2] (H-[dY]N[Phe(2-Cl)]NSF[azaGly]L[Arg(Me)]F-NH2)
1 | CNC(=N)NCCC[C@H](NC(=O)[C@H](CC(C)C)NC(=O)NNC(=O)[C@H](Cc1ccccc1)NC(=O)[C@H](CO)NC(=O)[C@H](CC(N)=O)NC(=O)[C@H](Cc1c[nH]c2ccccc12)NC(=O)[C@H](N)Cc1cccnc1)C(=O)N[C@@H](Cc1ccccc1)C(N)=O [Compound No. 289, D-Pya(3)-Trp-Asn-Ser-Phe-AzaGly-Leu-Arg(Me)-Phe-NH2] (H-[d3Pal]WNSF[azaGly]L[Arg(Me)]F-NH2)
1 | Tyr-Asn-Trp-Phe-Gly-Leu-Arg-Phe-NH2 (YNWFGLRF-NH2) [Compound No. 88]
1 | CNC(=N)NCCC[C@H](NC(=O)[C@H](CC(C)C)NC(=O)NNC(=O)[C@H](Cc1ccccc1)NC(=O)[C@H](CO)NC(=O)[C@H](CC(N)=O)NC(=O)[C@@H](NC(=O)[C@H](N)Cc1ccc(O)cc1)[C@@H](C)O)C(=O)N[C@@H](Cc1ccccc1)C(N)=O [Compound No. 241, D-Tyr-Thr-Asn-Ser-Phe-AzaGly-Leu-Arg(Me)-Phe-NH2] (H-[dY]TNSF[azaGly]L[Arg(Me)]F-NH2)
10 | CC(C)C[C@H](NC(=O)CNC(=O)[C@H](Cc1ccccc1)NC(=O)[C@H](CO)NC(=O)[C@H](CC(N)=O)NC(=O)[C@H](Cc1c[nH]c2ccccc12)NC(=O)[C@@H](CC(N)=O)NC(=O)[C@@H](N)Cc1ccc(O)cc1)C(=O)N[C@@H](CCCNC(=N)N)C(=O)N[C@@H](Cc1ccccc1)C(N)=O [Compound No. 41]
5 | CNC(=N)NCCC[C@H](NC(=O)[C@H](CC(C)C)NC(=O)NNC(=O)[C@H](Cc1ccccc1)NC(=O)[C@@H](NC(=O)[C@H](CC(N)=O)NC(=O)[C@H](Cc1c[nH]c2ccccc12)NC(=O)[C@@H](CC(N)=O)NC(=O)[C@H](N)Cc1ccc(O)cc1)[C@@H](C)O)C(=O)N[C@@H](Cc1ccccc1)C(N)=O [Compound No. 298, D-Tyr-D-Asn-Trp-Asn-Thr-Phe-AzaGly-Leu-Arg(Me)-Phe-NH2] (H-[dY][dN]WNTF[azaGly]L[Arg(Me)]F-NH2)
10 | D-Tyr-D-Pya(4)-Asn-Ser-Phe-AzaGly-Leu-Arg(Me)-Trp-NH2 [Compound No. 385]
10 | CNC(=N)NCCC[C@H](NC(=O)[C@H](CC(C)C)NC(=O)NNC(=O)[C@H](Cc1ccccc1)NC(=O)[C@H](CO)NC(=O)[C@H](CC(N)=O)NC(=O)[C@H](CC1CCCCC1)NC(=O)[C@H](CC(N)=O)NC(=O)[C@H](N)Cc1ccc(O)cc1)C(=O)N[C@@H](Cc1ccccc1)C(N)=O [Compound No. 190, D-Tyr-Asn-Cha-Asn-Ser-Phe-AzaGly-Leu-Arg(Me)-Phe-NH2] (H-[dY]N[Cha]NSF[azaGly]L[Arg(Me)]F-NH2)

Molecule | Specific Activity (intracellular Ca ion level-increasing activity)
CNC(=N)NCCC[C@H](NC(=O)[C@H](CC(C)C)NC(=O)NNC(=O)[C@H](Cc1ccccc1)NC(=O)[C@H](CO)NC(=O)[C@H](CC(N)=O)NC(=O)[C@H](Cc1cccc(Cl)c1)NC(=O)[C@H](CC(N)=O)NC(=O)[C@H](N)Cc1ccc(O)cc1)C(=O)N[C@@H](Cc1ccccc1)C(N)=O [Compound No. 248, D-Tyr-Asn-Phe(3Cl)-Asn-Ser-Phe-AzaGly-Leu-Arg(Me)-Phe-NH2] (H-[dY]N[Phe(3-Cl)]NSF[azaGly]L[Arg(Me)]F-NH2) | 2
